Data: PubChem BioAssay (NCI)
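Method: 48-hour compound exposure of cells in 96-well plates, five concentrations, linear interpolation of endpoints. TGI is the concentration that stops growth completely.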

Assays:
Assay in all cases: NCI tumour cell line growth inhibition, 48 h
786-0 renal = system: 786-0 renal
A498 renal = system: A498 renal
A549 NSCLC = system: A549 NSCLC
ACHN renal = system: ACHN renal
BT-549 breast = system: BT-549 breast
CAKI-1 renal = system: CAKI-1 renal
CCRF-CEM leukemia = system: CCRF-CEM leukemia
COLO 205 colon = system: COLO 205 colon
DU-145 prostate = system: DU-145 prostate
EKVX NSCLC = system: EKVX NSCLC
HCC-2998 colon = system: HCC-2998 colon
HCT-116 colon = system: HCT-116 colon
HCT-15 colon = system: HCT-15 colon
HL-60(TB) leukemia = system: HL-60(TB) leukemia
HOP-62 NSCLC = system: HOP-62 NSCLC
HOP-92 NSCLC = system: HOP-92 NSCLC
HS 578T breast = system: HS 578T breast
HT29 colon = system: HT29 colon
IGROV1 ovarian = system: IGROV1 ovarian
K-562 leukemia = system: K-562 leukemia
KM12 colon = system: KM12 colon
LOX IMVI melanoma = system: LOX IMVI melanoma
M14 melanoma = system: M14 melanoma
MALME-3M melanoma = system: MALME-3M melanoma
MCF7 breast = system: MCF7 breast
MDA-MB-231 breast = system: MDA-MB-231 breast
MDA-MB-435 = system: MDA-MB-435
MDA-N = system: MDA-N
MOLT-4 leukemia = system: MOLT-4 leukemia
NCI-H226 lung = system: NCI-H226 lung
NCI-H23 lung = system: NCI-H23 lung
NCI-H460 lung = system: NCI-H460 lung
NCI-H522 lung = system: NCI-H522 lung
NCI/ADR-RES ovarian = system: NCI/ADR-RES ovarian
OVCAR-3 ovarian = system: OVCAR-3 ovarian
OVCAR-4 ovarian = system: OVCAR-4 ovarian
OVCAR-5 ovarian = system: OVCAR-5 ovarian
OVCAR-8 ovarian = system: OVCAR-8 ovarian
PC-3 prostate = system: PC-3 prostate
RPMI-8226 leukemia = system: RPMI-8226 leukemia
RXF 393 renal = system: RXF 393 renal
SF-268 CNS = system: SF-268 CNS
SF-295 CNS = system: SF-295 CNS
SF-539 CNS = system: SF-539 CNS
SK-MEL-2 melanoma = system: SK-MEL-2 melanoma
SK-MEL-28 melanoma = system: SK-MEL-28 melanoma
SK-MEL-5 melanoma = system: SK-MEL-5 melanoma
SK-OV-3 ovarian = system: SK-OV-3 ovarian
SN12C renal = system: SN12C renal
SNB-19 CNS = system: SNB-19 CNS
SNB-75 CNS = system: SNB-75 CNS
SR leukemia = system: SR leukemia
SW-620 colon = system: SW-620 colon
T-47D breast = system: T-47D breast
TK-10 renal = system: TK-10 renal
U251 CNS = system: U251 CNS
UACC-257 melanoma = system: UACC-257 melanoma
UACC-62 melanoma = system: UACC-62 melanoma
UO-31 renal = system: UO-31 renal

Q: Which TGI (786-0 renal) does the source give for `CC(NC1=CC(=O)c2cccnc2C1=O)C(O)c1ccccc1` (centres undefined) here?
A: 12.2 µM

Q: What about the TGI (A498 renal) of the same molecule?
A: 8.82 µM

Q: And the TGI (A549 NSCLC)?
A: 5.13 µM

Q: What about the TGI (ACHN renal) of the same molecule?
A: 14.5 µM

Q: What about the TGI (BT-549 breast) of the same molecule?
A: 3.59 µM

Q: What about the TGI (CAKI-1 renal) of the same molecule?
A: 7.23 µM

Q: And the TGI (CCRF-CEM leukemia)?
A: 25.5 µM

Q: And the TGI (COLO 205 colon)?
A: 3.42 µM

Q: What about the TGI (DU-145 prostate) of the same molecule?
A: 3.65 µM

Q: What about the TGI (EKVX NSCLC) of the same molecule?
A: 20.1 µM

Q: What about the TGI (HCC-2998 colon) of the same molecule?
A: 10.8 µM

Q: What about the TGI (HCT-116 colon) of the same molecule?
A: 7.79 µM

Q: What about the TGI (HCT-15 colon) of the same molecule?
A: 8.08 µM

Q: And the TGI (HL-60(TB) leukemia)?
A: 6.69 µM

Q: And the TGI (HOP-62 NSCLC)?
A: 3.03 µM

Q: And the TGI (HOP-92 NSCLC)?
A: 24.5 µM

Q: What about the TGI (HS 578T breast) of the same molecule?
A: 8.14 µM

Q: What about the TGI (HT29 colon) of the same molecule?
A: 9.45 µM

Q: And the TGI (IGROV1 ovarian)?
A: 6.18 µM

Q: What about the TGI (K-562 leukemia) of the same molecule?
A: 5.93 µM

Q: And the TGI (KM12 colon)?
A: 27.8 µM

Q: What about the TGI (LOX IMVI melanoma) of the same molecule?
A: 3.16 µM

Q: What about the TGI (M14 melanoma) of the same molecule?
A: 3.12 µM

Q: And the TGI (MALME-3M melanoma)?
A: 2.94 µM

Q: And the TGI (MCF7 breast)?
A: 3.04 µM

Q: And the TGI (MDA-MB-231 breast)?
A: > 46.3 µM

Q: And the TGI (MDA-MB-435)?
A: 3.13 µM

Q: What about the TGI (MDA-N) of the same molecule?
A: 1.3 µM

Q: And the TGI (MOLT-4 leukemia)?
A: 22.4 µM

Q: And the TGI (NCI-H226 lung)?
A: 4.44 µM

Q: And the TGI (NCI-H23 lung)?
A: 3.01 µM

Q: What about the TGI (NCI-H460 lung) of the same molecule?
A: 2.78 µM

Q: What about the TGI (NCI-H522 lung) of the same molecule?
A: 3.57 µM

Q: What about the TGI (NCI/ADR-RES ovarian) of the same molecule?
A: 24.2 µM

Q: And the TGI (OVCAR-3 ovarian)?
A: 6 µM

Q: And the TGI (OVCAR-4 ovarian)?
A: 11.1 µM

Q: And the TGI (OVCAR-5 ovarian)?
A: 4.69 µM

Q: What about the TGI (OVCAR-8 ovarian) of the same molecule?
A: 17.6 µM

Q: And the TGI (PC-3 prostate)?
A: 10.6 µM

Q: What about the TGI (RPMI-8226 leukemia) of the same molecule?
A: 6.7 µM

Q: And the TGI (RXF 393 renal)?
A: 16.5 µM

Q: And the TGI (SF-268 CNS)?
A: 20.8 µM

Q: What about the TGI (SF-295 CNS) of the same molecule?
A: 2.63 µM

Q: And the TGI (SF-539 CNS)?
A: 3.75 µM

Q: And the TGI (SK-MEL-2 melanoma)?
A: 4.48 µM

Q: And the TGI (SK-MEL-28 melanoma)?
A: 3.1 µM

Q: What about the TGI (SK-MEL-5 melanoma) of the same molecule?
A: 2.44 µM

Q: And the TGI (SK-OV-3 ovarian)?
A: 23.4 µM

Q: What about the TGI (SN12C renal) of the same molecule?
A: 3.04 µM

Q: And the TGI (SNB-19 CNS)?
A: 5.66 µM

Q: And the TGI (SNB-75 CNS)?
A: 3.05 µM

Q: What about the TGI (SR leukemia) of the same molecule?
A: > 23.1 µM

Q: What about the TGI (SW-620 colon) of the same molecule?
A: 3.89 µM

Q: And the TGI (T-47D breast)?
A: 18.7 µM

Q: And the TGI (TK-10 renal)?
A: 28.1 µM

Q: And the TGI (U251 CNS)?
A: 13.2 µM

Q: What about the TGI (UACC-257 melanoma) of the same molecule?
A: 2.84 µM

Q: And the TGI (UACC-62 melanoma)?
A: 3.1 µM

Q: What about the TGI (UO-31 renal) of the same molecule?
A: 9.49 µM
